From patent publication US4510307A, “6-Quinazolinesulfonyl derivatives and process for preparation thereof” (Asahi Kasei Kogyo Kabushiki Kaisha, priority 1980, dated 1985)

system: mesenteric artery; assay: Relaxation of Mesenteric Artery (isolated rabbit mesenteric artery contracted with KCl); conditions: Oryctolagus cuniculus, concentration for 50% relaxation, KCl 15~20 mM contraction, read-out: Relaxation of Mesenteric Artery ED50
Description: When, for example, 1-[4-(N-methyl-N-cyclohexylamino)-6-quinazolinesulfonyl]-4-(2-ethoxy-2-phenylethyl)piperazine was added and a complete relaxation was designated 100%, the concentration which could bring about a relaxation of 50%, i.e., ED50 was 0.8 μM.
After a home bred rabbit of a Japanese species weighing about 3 Kg was subjected to bloodletting, resulting in death and then to abdominal incision, the mesenteric artery was taken out, cut into helicoids of 2 mm×25 mm and suspended in a 20 ml organ bath filled with a Krebs-Henseleit solution into which a mixed gas of 95% by volume of O2 and 5% by volume of CO2 was introduced and one end of the artery was connected with an isometric transducer. When a load of 1.5 g was applied to the artery, the contraction and the relaxation of the artery was recorded as a weight on the transducer (a product of Nippon Koden K.K., Japan, "FD Pickup TB-912T"). The relaxation of the mesenteric artery was observed by adding the 6-quinazolinesulfonyl derivatives and their pharmaceutically acceptable acid addition salts to the mesenteric artery at the condition of about one half of the maxinum contraction with KCl at a KCl concentrantion of 15~20 mM. When the complete relaxation of the mesenteric artery was designated 100%, the concentration of the 6-quinazolinesulfonyl derivatives and their pharmaceutically acceptable acid addition salts which brought about a relaxation of 50% is shown in Table 6.

Row | Structure (SMILES) | EC50
1 | CCOC(CN1CCN(S(=O)(=O)c2ccc3ncnc(N)c3c2)CC1)c1ccccc1 (stereo not drawn) [Compound (1), 1-(4-amino-6-quinazolinesulfonyl)-4-(2-ethoxy-2-phenylethyl)piperazine] | 9.8 µM
2 | CCOC(CN1CCN(S(=O)(=O)c2ccc3ncnc(N(C)C)c3c2)CC1)c1ccccc1 (stereo not drawn) [Compound (2), 1-(4-dimethylamino-6-quinazolinesulfonyl)-4-(2-ethoxy-2-phenylethyl)-piperazine] | 4.5 µM
3 | CCOC(CN1CCN(S(=O)(=O)c2ccc3ncnc(N(CC)CC)c3c2)CC1)c1ccccc1 (stereo not drawn) [Compound (3), 1-(4-diethylamino-6-quinazolinesulfonyl)-4-(2-ethoxy-2-phenylethyl)-piperazine] | 5 µM
4 | COC(CN1CCN(S(=O)(=O)c2ccc3ncnc(N4CCCCC4)c3c2)CC1)c1ccccc1 (stereo not drawn) [Compound (5), 1-(4-piperidino-6-quinazolinesulfonyl)-4-(2-methoxy-2-phenylethyl)-piperazine] | 5.8 µM
5 | CC(C)OC(CN1CCN(S(=O)(=O)c2ccc3ncnc(N4CCCCC4)c3c2)CC1)c1ccccc1 (stereo not drawn) [Compound (7), 1-(4-piperidino-6-quinazolinesulfonyl)-4-(2-isopropoxy-2-phenylethyl)-piperazine] | 2.2 µM
6 | CC(C)COC(CN1CCN(S(=O)(=O)c2ccc3ncnc(N4CCCCC4)c3c2)CC1)c1ccccc1 (stereo not drawn) [Compound (8), 1-(4-piperidino-6-quinazolinesulfonyl)-4-(2-isobutoxy-2-phenylethyl)-piperazine] | 10.7 µM
7 | CCOC(CN1CCN(S(=O)(=O)c2ccc3ncnc(N4CCOCC4)c3c2)CC1)c1ccccc1 (stereo not drawn) [Compound (14), 1-(4-morpholino-6-quinazolinesulfonyl)-4-(2-ethoxy-2-phenylethyl)-piperazine] | 9.5 µM
8 | CCOC(CN1CCN(S(=O)(=O)c2ccc3ncnc(NC4CCCCC4)c3c2)CC1)c1ccccc1 (stereo not drawn) [Compound (15), 1-(4-cyclohexylamino-6-quinazolinesulfonyl)-4-(2-ethoxy-2-phenylethyl)-piperazine] | 1.6 µM
9 | CCOC(CN1CCN(S(=O)(=O)c2ccc3ncnc(Nc4ccccc4)c3c2)CC1)c1ccccc1 (stereo not drawn) [Compound (16), 1-(4-anilino-6-quinazolinesulfonyl)-4-(2-ethoxy-2-phenylethyl)piperazine] | 2.7 µM
10 | CCOC(CN1CCN(S(=O)(=O)c2ccc3ncnc(NCc4ccccc4)c3c2)CC1)c1ccccc1 (stereo not drawn) [Compound (17), 1-(4-benzylamino-6-quinazolinesulfonyl)-4-(2-ethoxy-2-phenylethyl)-4-(2-ethoxy-2-phenylethyl)piperazine] | 3.2 µM
11 | CCOC(CN1CCN(S(=O)(=O)c2ccc3ncnc(N(C)C4CCCC4)c3c2)CC1)c1ccccc1 (stereo not drawn) [Compound (18), 1-[4-(N-methyl-N-cyclopentylamino)-6-quinazolinesulfonyl]-4-(2-ethoxy-2-phenylethyl)piperazine] | 1.4 µM
12 | CCOC(CN1CCN(S(=O)(=O)c2ccc3ncnc(N(C)C4CCCCCC4)c3c2)CC1)c1ccccc1 (stereo not drawn) [Compound (20), 1-[4-(N-methyl-N-cycloheptylamino)-6-quinazolinesulfonyl]-4-(2-ethoxy-2-phenylethyl)piperazine] | 3.7 µM
13 | CCOC(CN1CCN(S(=O)(=O)c2ccc3ncnc(N(CC(C)C)C4CCCCC4)c3c2)CC1)c1ccccc1 (stereo not drawn) [Compound (22), 1-[4-(N-isobutyl-N-cyclohexylamino)-6-quinazolinesulfonyl]-4-(2-ethoxy-2-phenylethyl)piperazine] | 2.5 µM
14 | COC(CN1CCN(S(=O)(=O)c2ccc3ncnc(N(C)C4CCCCC4)c3c2)CC1)c1ccccc1 (stereo not drawn) [Compound (26), 1-[4-(N-methyl-N-cyclohexylamino)-6-quinazolinesulfonyl]-4-(2-methoxy-2-phenylethyl)piperazine] | 1.4 µM
15 | CC(C)OC(CN1CCN(S(=O)(=O)c2ccc3ncnc(N(C)C4CCCCC4)c3c2)CC1)c1ccccc1 (stereo not drawn) [Compound (27), 1-[4-(N-methyl-N-cyclohexylamino)-6-quinazolinesulfonyl]-4-(2-isopropoxy-2-phenylethyl)piperazine] | 0.9 µM
